Legend:
[1] = target: T1, DOG1 (Saccharomyces cerevisiae, UniProt P38774); assay: Specificity of DOG1 towards sugar phosphates in yeast cell extracts (phosphate release); type: biochemical, S. cerevisiae; conditions: 20 mM substrate; cell extract of H1514; relative to 2-deoxyglucose-6-P as 100%
T1 construct: expressed in transfected cells; host or cells: S. cerevisiae H1104 (W303-1B) transformed with plasmid B1020 (YEplac195, ADH1 promoter-DOG1-ADH1 terminator) = strain H1514; crude cell extract
T1 sequence (P38774 1-246): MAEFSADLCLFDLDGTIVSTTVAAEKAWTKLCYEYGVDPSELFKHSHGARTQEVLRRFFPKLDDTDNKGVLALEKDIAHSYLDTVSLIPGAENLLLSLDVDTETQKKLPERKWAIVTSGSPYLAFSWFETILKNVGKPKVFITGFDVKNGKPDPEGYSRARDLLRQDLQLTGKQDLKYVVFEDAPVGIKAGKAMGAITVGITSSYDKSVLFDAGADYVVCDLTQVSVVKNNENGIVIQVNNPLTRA
Method: The specificity of DOG1 towards xylulose-5-P, ribulose-5-P, ribose-5-P and 2-deoxyglucose-6-P was determined using 20 mM substrate concentrations. Yeast cell extracts were prepared as described in example 15, except that 50 mM imidazole-HCl, 10 mM MgCl2 buffer, pH 6.0 was used. 10 μl of extract and 210 μl of substrate (20 mM) in the same buffer was incubated for 30 min, 30° C. The reaction was stopped with final 2% of TCA and the phosphate released was measured using ammonium molybdate (15 mM), zinc acetate (100 mM), pH 5.0 as the reagent. The formation of molybdenum blue was measured at 350 nm, and quantified by phosphate standards (Sanz, P. et al., Yeast 10:1195–1202 (1994); Bencini, D. A. et al., Anal. Biochem. 132:254–258 (1983)).

[2] = target: T1, DOG1; conditions: 40 mM substrate; relative to 2-deoxyglucose-6-P as 100%; cited from earlier work
[3] = Xylulose 5-phosphate reductase (XPDH/APDH) activity assay with NADH; type: biochemical; conditions: 5 mM xylulose 5-phosphate as the substrate
Method: The strain BD 170 [pGTK24(MXD2)] as well as untransformed strain BD 170 was grown overnight on either LB or LB, containing 10% glucose, cell extracts were prepared and the XDH activity measured. The assay conditions for measuring XDH activity were: 30° C., 50 mM Tris-HCI, pH 7.0, 0.2 mM NADH and 10 mM D-xylulose. Changes of absorption at 340 nm were recorded; one unit of activity was defined as the amount of enzyme that catalyzed the reduction of one […] of substrate per minute under the conditions of assay (assuming the differential absorption coefficient NADH/NAD^+ to be equal to […]). The following levels of XDH activity were measured in the strain BD170 [pGTK24(MXD2)] grown on the two media: LB—0.5 U/mgproteins, LB-glucose 0.05–0.15 U/mgprotein. Thus, glucose appeared to repress the activity of the aldolase promoter 3–10 fold. No XDH activity could be detected in the strain BD170 grown on either of the two media.
B. subtilis strain BD170 was transformed with pGTK74(LRXPDH) and pGTK74(BHDH2). The transformants were grown overnight in LB containing 25 mg/liter kanamycin, cell extract were prepared by sonication and the activity of XPDH activity was measured. The conditions for measuring the XPDH activity were similar to those used for measuring the xylitol dehydrogenase activity except that xylulose 5-phosphate was used as the substrate (usually at 5 mM concentration) instead of xylulose. The activities were approximately 0.3 U/mg protein for the XPDH from L. rhamnosus and about 0.5 U/mg protein for B. halodurans enzyme.
Enterococcus avium ATCC 35655 was cultivated at 30° C. in 5 liters of a medium containing: peptone—10 g/l, yeast extract—5 g/l, beef extract 10 g/l, K2HPO4 2 g/l, NaCl—5 g/l, MgSO4—0.02 g/l, MnCl2—0.05 g/l, ammonium citrate 2 g/l, Tween 20—1.1 ml/l, xylitol—20g/l, pH 6.5. […]

[4] = Stereospecificity of D-xylulose 5-phosphate reduction, products dephosphorylated and analyzed by HPLC; type: biochemical; conditions: 10 mM xylulose 5-phosphate, 10 mM NADH, pH 7.0, 37° C.
Method: The stereospecificity of xylulose-phosphate reduction by the B. halodurans XPDH was verified by the following procedure. The reaction between D-xylulose 5-phosphate and NADH was conducted at 37° C. for several hours under the following conditions: 100 mM Tris-HC buffer, pH 7.0, 10 mM xylulose 5-phosphate, 10 mM NADH, […] the enzyme lysate. The reaction products were dephosphorylated with alkaline phosphatase and analyzed by HPLC. […] It should be noted that among the highest-scoring four homologues of the L. rhamnosus XPDH, the enzyme from B. holodurans is the least homologous. This can be interpreted as an indication that the other three homologues (SEQ ID NO:51, 52 and 53) are most probably also xylitol-phosphate dehydrogenases.
The stereospecificity of D-xylulose 5-phosphate reduction by the E. avium arabitol-phosphate dehydrogenase was verified by the following procedure. The reaction between D-xylulose 5-phosphate and NADH was conducted at 37° C. for several hours under the following conditions: 100 mM Tris-HCl buffer, pH 7.0, 10 mM xylulose 5-phosphate, 10 mM NADH, 1U of the enzyme. The reaction products were dephosphorylated with alkaline phosphatase and analyzed by HPLC. […] There are no other arabitol-phosphate dehydrogenases described in the art.
Both arabitol-phosphate dehydrogenase genes were expressed using the same tools and methods as those used for the expression of xylitol-phosphate dehydrogenases (Example 26). Briefly, the coding regions of the two arabitol-phosphate dehydrogenase genes were amplified using the chromosomal DNA of the microorganism from which the enzyme was isolated and the appropriate PCR primers. In the case of E. avium the primers were oAPDH 51 […] SEQ ID NO: 71) and the anti-sense primer oAPDH 31 […]) SEQ ID NO: 72. For B. halodurans, the sense primer was oBHDH 5 ([…], SEQ ID NO: 73) and the anti-sense primer was oBHDH 3 ([…], SEQ ID NO: 74). […] The stereospecificity of D-xylulose 5-phosphate reduction by the previously unknown enzyme from B. halodurans was determined as described in Example 30.

[5] = XDH activity assay in yeast cell extracts, reaction started with D-xylulose; type: biochemical; conditions: 1 mM D-xylulose; 0.2 mM NADH; pH 7.0; cell extract
Source text: (§1) The xylitol dehydrogenases of P. stipitis, Trichoderma reesei and S. cerevisiae were investigated regarding their specificities towards their sugar substrates. Each of the XDH encoding genes was expressed on multi-copy vectors pAOS67, B1070 and B1163, respectively (see Example 12). Yeast strain H1104 (pAOS67, B1163) and H1052 (B1070) harboring each of the multi-copy vectors, H1160, H1886 and H1748, respectively, were cultivated on SCD medium lacking the appropriate selection marker (histidine, leucine, uracil, respectively). Cells were collected by centrifugation and washed twice with 100 mM sodium phosphate buffer pH 7.0. Cells were resuspended at a concentration of 500 mg/ml wet weight, corresponding approximately to 75 mg/ml dry weight, in the same buffer. 1 ml of this suspension was vortexed with 1 g glass beads (0,5 mm Ø) for 15 min. at 4° C., centrifuged in an Eppendorf centrifuge (13,000 rpm) and the supernatant was assayed. XDH activity was assayed in a medium containing 50 mM Pipes KOH pH 7.0, 0.2 mM NADH. The reaction was started by addition of D-xylulose or D-ribulose at a final concentration of 1 mM. The activity was measured by following the adsorption of NADH at 340 nm.

[6] = XDH activity assay in yeast cell extracts, reaction started with D-ribulose; type: biochemical; conditions: 1 mM D-ribulose; 0.2 mM NADH; pH 7.0; cell extract
Source text: as §1

For O=CC[C@@H](O)[C@H](O)[C@H](O)COP(=O)(O)O [2-deoxyglucose-6-P, 2-deoxyglucose-6-phosphate], the “Relative activity (20 mM)” value [1] is given as 100% and the “Activity reported in the literature (40 mM)” value (shortened to “Activity reported”) [2] is given as 100%.

For O=C[C@H](O)[C@H](O)[C@H](O)COP(=O)(O)O [ribose-5-P, ribose-5-phosphate], the “Relative activity (20 mM)” value [1] is listed as 52% and the “Activity reported” value [2] is listed as 42%.

In the case of O=C(CO)[C@H](O)[C@H](O)COP(=O)(O)O [ribulose-5-P, ribulose-5-phosphate], the “Relative activity (20 mM)” value [1] is given as 6% and the “Activity reported” value [2] is given as 7%.

B1: arabitol-phosphate dehydrogenase: arabitol-phosphate dehydrogenase purified from Enterococcus avium ATCC 35655, SEQ ID NO:69 (protein)
chain: MSKTMKGVSKQAPGYDQMAFIDLSVPEATDDKVLIKVAYTGICGSDIHTFKGEYKNPTTPVVLGHEFSGQVVEVGANVTKVKVGDRVTSETTFYVCGECDYCKEKQYNLCPHRKGIGTQQNGSMANYVLAREESIHLLPDHLSYEGAAMSEPLACCVHAMYQKSHLELKDTIIIMGPGPIGLYLLQIAKEIGAFVIMTGITKDAHRLALAKKLGADVIVDTMKEDLAKVVNEITDGYGVDKVYDASGAVPAVNASLPLIRKQGQFIQVGLFANKMVDLDTESIIQREIEYIGSRSQNPYDWPIAIHLLAKGAINIDEMITKKYPLTEWREAFDKVMEGNEIKVMIESNPEEF
modifications: Bacillus halodurans
With B1 the “specific activity of purified enzyme” value [3] was “about 12 U/mgprotein” and the “products found in the reaction mixture / stereospecificity” value [4] was “Only arabitol and xylulose (corresponding to the unreacted xylulose 5-phosphate) were found”.

B2: Saccharomyces cerevisiae XDH: enzyme having xylitol dehydrogenase activity encoded by S. cerevisiae ORF YLR070c, expressed on B1163 (protein, UniProt Q07993 1-356, looked up)
D-xylulose reductase: MTDLTTQEAIVLERPGKITLTNVSIPKISDPNEVIIQIKATGICGSDIHYYTHGRIANYVVESPMVLGHESSGIVALIGENVKTLKVGDRVALEPGIPDRFSPEMKEGRYNLDPNLKFAATPPFDGTLTKYYKTMKDFVYKLPDDVSFEEGALIEPLSVAIHANKLAKIKFGARCVVFGAGPIGLLAGKVASVFGAADVVFVDLLENKLETARQFGATHIVNSGDLPHGVTVDSVIKKAIGKKGADVVFECSGAEPCVRAGIEVCKAGGTIVQVGMGQEEIQFPISIIPTKELTFQGCFRYCQGDYSDSIELVSSRKLSLKPFITHRYSFKDAVEAFEETSHHPLNNIKTIIEGPE
With B2 the “specific activity towards D-xylulose, normalized to D-xylulose activity being 100%” value [5] was 100% and the “specific activity towards D-ribulose, normalized to D-xylulose activity being 100%” value [6] was 10%.

B3: Pichia stipitis XDH: xylitol dehydrogenase encoded by the XYL2 gene from Pichia stipitis, expressed in yeast on pAOS67 (protein, UniProt P22144 1-363, looked up)
D-xylulose reductase: MTANPSLVLNKIDDISFETYDAPEISEPTDVLVQVKKTGICGSDIHFYAHGRIGNFVLTKPMVLGHESAGTVVQVGKGVTSLKVGDNVAIEPGIPSRFSDEYKSGHYNLCPHMAFAATPNSKEGEPNPPGTLCKYFKSPEDFLVKLPDHVSLELGALVEPLSVGVHASKLGSVAFGDYVAVFGAGPVGLLAAAVAKTFGAKGVIVVDIFDNKLKMAKDIGAATHTFNSKTGGSEELIKAFGGNVPNVVLECTGAEPCIKLGVDAIAPGGRFVQVGNAAGPVSFPITVFAMKELTLFGSFRYGFNDYKTAVGIFDTNYQNGRENAPIDFEQLITHRYKFKDAIEAYDLVRAGKGAVKCLIDGPE
For B3, the “specific activity towards D-xylulose, normalized to D-xylulose activity being 100%” value [5] was 100% and the “specific activity towards D-ribulose, normalized to D-xylulose activity being 100%” value [6] was 25%.

From patent publication US7226761B2, “Manufacture of five-carbon sugars and sugar alcohols” (Danisco Sweeteners Oy, priority 1992, dated 2007)
